“And” between values parts separate entries of the source, which are not always exact repeats. Equal entries are not always repeated. Inconclusive results and toxic doses are left out.
Tested on: B6C3F1 mice, intracerebral ependymoblastoma, median survival T/C
Assay: NCI In Vivo Anticancer Drug Screen. Data for tumor model Ependymoblastoma (intracerebral) in B6C3F1 mice
Conditions: endpoint: median survival time, higher = longer survival
Method: The antitumor activity of compounds was measured in mice bearing transplantable tumors. Survival or tumor size were measured and the results are expressed as the measurement made in the treated group (T) divided by the measurement made in the vehicle treated control group (C). The tumor model used in this assay is Ependymoblastoma (intracerebral) in B6C3F1 mice

[1] = dose: 4.0 mg/kg/injection, schedule: Q01DX005 (ip), vehicle: saline with Tween-80
[2] = dose: 8.0 mg/kg/injection, schedule: Q01DX005 (ip), vehicle: saline with Tween-80
[3] = dose: 16.0 mg/kg/injection, schedule: Q01DX005 (ip), vehicle: saline with Tween-80
[4] = dose: 32.0 mg/kg/injection, schedule: Q01DX005 (ip), vehicle: saline with Tween-80
[5] = dose: 100.0 mg/kg/injection, schedule: Q01DX005 (ip), vehicle: saline with Tween-80
[6] = dose: 2.0 mg/kg/injection, schedule: Q01DX005 (ip), vehicle: saline with Tween-80
[7] = dose: 4.0 mg/kg/injection, schedule: Q01DX005 (ip), vehicle: Klucel (hydroxypropylcellulose) (HPC)
[8] = dose: 8.0 mg/kg/injection, schedule: Q01DX005 (ip), vehicle: Klucel (hydroxypropylcellulose) (HPC)
[9] = dose: 2.0 mg/kg/injection, schedule: Q01DX005 (ip), vehicle: Klucel (hydroxypropylcellulose) (HPC)
[10] = dose: 32.0 mg/kg/injection, schedule: Q01DX005 (ip), vehicle: Klucel (hydroxypropylcellulose) (HPC)

CN(CO)c1nc(N(C)CO)nc(N(C)CO)n1
T/C (dose: 0.78 mg/kg/injection, schedule: Q01DX005 (ip), vehicle: saline with Tween-80): 98 % of control
T/C (dose: 1.56 mg/kg/injection, schedule: Q01DX005 (ip), vehicle: saline with Tween-80): 100 % of control and 105 % of control
T/C (dose: 3.12 mg/kg/injection, schedule: Q01DX005 (ip), vehicle: saline with Tween-80): 94 % of control and 105 % of control and 110 % of control
T/C (dose: 3.12 mg/kg/injection, schedule: Q01DX009 (ip), vehicle: Klucel (hydroxypropylcellulose) (HPC)): 95 % of control and 120 % of control
T/C [1]: 98 % of control
T/C (dose: 6.25 mg/kg/injection, schedule: Q01DX009 (ip), vehicle: Klucel (hydroxypropylcellulose) (HPC)): 96 % of control and 108 % of control and 111 % of control
T/C [2]: 89 % of control
T/C (dose: 12.5 mg/kg/injection, schedule: Q01DX009 (ip), vehicle: Klucel (hydroxypropylcellulose) (HPC)): 93 % of control and 111 % of control
T/C [3]: 97 % of control
T/C (dose: 25.0 mg/kg/injection, schedule: Q01DX009 (ip), vehicle: Klucel (hydroxypropylcellulose) (HPC)): 104 % of control and 114 % of control and 124 % of control
T/C [4]: 94 % of control
T/C (dose: 50.0 mg/kg/injection, schedule: Q01DX009 (ip), vehicle: Klucel (hydroxypropylcellulose) (HPC)): 120 % of control
T/C (dose: 64.0 mg/kg/injection, schedule: Q01DX005 (ip), vehicle: saline with Tween-80): 95 % of control
T/C [5]: 119 % of control

O=NN(CCCl)C(=O)NC1CCC(=O)NC1=O (stereo unspecified)
T/C (dose: 0.5 mg/kg/injection, schedule: Q01DX005 (ip), vehicle: Klucel (hydroxypropylcellulose) (HPC)): 91 % of control
T/C (dose: 0.5 mg/kg/injection, schedule: Q01DX005 (ip), vehicle: saline with Tween-80): 109 % of control
T/C (dose: 1.0 mg/kg/injection, schedule: Q01DX005 (ip), vehicle: Klucel (hydroxypropylcellulose) (HPC)): 114 % of control
T/C (dose: 1.0 mg/kg/injection, schedule: Q01DX005 (ip), vehicle: suspension in saline): 124 % of control
T/C (dose: 1.0 mg/kg/injection, schedule: Q01DX009 (ip), vehicle: saline with Tween-80): 241 % of control
T/C [6]: 238 % of control
T/C (dose: 2.0 mg/kg/injection, schedule: Q01DX009 (ip), vehicle: saline with Tween-80): 241 % of control
T/C (dose: 2.59 mg/kg/injection, schedule: Q01DX005 (ip), vehicle: Klucel (hydroxypropylcellulose) (HPC)): 309 % of control
T/C (dose: 4.0 mg/kg/injection, schedule: Q01DX001 (ip), vehicle: saline + alcohol): 154 % of control
T/C [7]: 207 % of control
T/C [1]: 396 % of control
T/C (dose: 4.0 mg/kg/injection, schedule: Q01DX005 (ip), vehicle: suspension in saline): 179 % of control and 236 % of control and 260 % of control
T/C (dose: 4.32 mg/kg/injection, schedule: Q01DX005 (ip), vehicle: Klucel (hydroxypropylcellulose) (HPC)): 357 % of control
T/C (dose: 5.0 mg/kg/injection, schedule: Q01DX001 (ip), vehicle: DMSO): 112 % of control
T/C (dose: 6.0 mg/kg/injection, schedule: Q01DX005 (ip), vehicle: suspension in saline): 262 % of control and 267 % of control
T/C (dose: 7.2 mg/kg/injection, schedule: Q01DX001 (ip), vehicle: Klucel (hydroxypropylcellulose) (HPC)): 187 % of control
T/C (dose: 7.2 mg/kg/injection, schedule: Q01DX005 (ip), vehicle: Klucel (hydroxypropylcellulose) (HPC)): 357 % of control
T/C (dose: 8.0 mg/kg/injection, schedule: Q01DX001 (ip), vehicle: saline + alcohol): 229 % of control
T/C [8]: 274 % of control
T/C [2]: 172 % of control
T/C (dose: 8.0 mg/kg/injection, schedule: Q01DX005 (ip), vehicle: suspension in saline): 205 % of control
T/C (dose: 8.3 mg/kg/injection, schedule: Q01DX001 (ip), vehicle: DMSO): 226 % of control
T/C (dose: 10.0 mg/kg/injection, schedule: Q07DX003 (ip), vehicle: saline): 175 % of control
T/C (dose: 10.0 mg/kg/injection, schedule: Q07DX003 (ip), vehicle: suspension in saline): 252 % of control
T/C (dose: 12.0 mg/kg/injection, schedule: Q01DX001 (ip), vehicle: Klucel (hydroxypropylcellulose) (HPC)): 363 % of control
T/C (dose: 12.0 mg/kg/injection, schedule: Q01DX005 (ip), vehicle: Klucel (hydroxypropylcellulose) (HPC)): 357 % of control
T/C (dose: 13.8 mg/kg/injection, schedule: Q01DX001 (ip), vehicle: DMSO): 367 % of control
T/C (dose: 16.0 mg/kg/injection, schedule: Q01DX001 (ip), vehicle: saline + alcohol): 324 % of control
T/C [3]: 114 % of control
T/C (dose: 20.0 mg/kg/injection, schedule: Q01DX001 (ip), vehicle: Klucel (hydroxypropylcellulose) (HPC)): 363 % of control
T/C (dose: 20.0 mg/kg/injection, schedule: Q07DX003 (ip), vehicle: saline): 99 % of control
T/C (dose: 20.0 mg/kg/injection, schedule: Q07DX003 (ip), vehicle: suspension in saline): 252 % of control
T/C (dose: 23.0 mg/kg/injection, schedule: Q01DX001 (ip), vehicle: DMSO): 367 % of control
T/C (dose: 32.0 mg/kg/injection, schedule: Q01DX001 (ip), vehicle: saline + alcohol): 324 % of control
T/C (dose: 32.0 mg/kg/injection, schedule: Q01DX001 (ip), vehicle: suspension in saline): 120 % of control
T/C (dose: 33.3 mg/kg/injection, schedule: Q01DX001 (ip), vehicle: Klucel (hydroxypropylcellulose) (HPC)): 90 % of control
T/C (dose: 38.4 mg/kg/injection, schedule: Q01DX001 (ip), vehicle: DMSO): 366 % of control

Nc1ncn(C2OC(CO)C(O)C2O)c(=O)n1 (stereo unspecified)
T/C (dose: 0.59 mg/kg/injection, schedule: Q03HX024 (ip), vehicle: saline): 111 % of control
T/C (dose: 0.75 mg/kg/injection, schedule: Q01DX005 (ip), vehicle: saline): 116 % of control
T/C (dose: 1.17 mg/kg/injection, schedule: Q03HX024 (ip), vehicle: saline): 109 % of control
T/C (dose: 1.5 mg/kg/injection, schedule: Q01DX005 (ip), vehicle: saline): 109 % of control
T/C (dose: 2.34 mg/kg/injection, schedule: Q03HX024 (ip), vehicle: saline): 116 % of control
T/C (dose: 3.0 mg/kg/injection, schedule: Q01DX005 (ip), vehicle: saline): 116 % of control
T/C (dose: 9.38 mg/kg/injection, schedule: Q03HX024 (ip), vehicle: saline): 154 % of control

CN=S(=O)(OCCCCCOS(=O)(=NC)c1ccccc1)c1ccccc1 (stereo unspecified)
T/C (dose: 6.25 mg/kg/injection, schedule: Q01DX005 (ip), vehicle: saline with Tween-80): 110 % of control
T/C (dose: 12.5 mg/kg/injection, schedule: Q01DX005 (ip), vehicle: saline with Tween-80): 100 % of control
T/C (dose: 25.0 mg/kg/injection, schedule: Q01DX005 (ip), vehicle: saline with Tween-80): 95 % of control and 106 % of control
T/C (dose: 50.0 mg/kg/injection, schedule: Q01DX005 (ip), vehicle: saline with Tween-80): 111 % of control and 112 % of control
T/C [5]: 101 % of control and 123 % of control

Cc1[nH]c(=O)[nH]c(=O)c1N(CCF)CCCl
T/C [9]: 90 % of control
T/C [6]: 98 % of control and 100 % of control
T/C [7]: 93 % of control and 108 % of control
T/C [1]: 102 % of control and 105 % of control
T/C [8]: 97 % of control and 114 % of control
T/C [2]: 96 % of control and 100 % of control
T/C (dose: 16.0 mg/kg/injection, schedule: Q01DX005 (ip), vehicle: Klucel (hydroxypropylcellulose) (HPC)): 107 % of control and 89 % of control
T/C [3]: 106 % of control and 107 % of control
T/C [10]: 94 % of control and 123 % of control
T/C [4]: 100 % of control

O=NN(CCF)C(=O)NC1CCC(=O)NC1=O (stereo unspecified)
T/C (dose: 5.18 mg/kg/injection, schedule: Q01DX005 (ip), vehicle: Klucel (hydroxypropylcellulose) (HPC)): 186 % of control
T/C (dose: 8.64 mg/kg/injection, schedule: Q01DX005 (ip), vehicle: Klucel (hydroxypropylcellulose) (HPC)): 232 % of control
T/C (dose: 14.4 mg/kg/injection, schedule: Q01DX005 (ip), vehicle: Klucel (hydroxypropylcellulose) (HPC)): 357 % of control
T/C (dose: 24.0 mg/kg/injection, schedule: Q01DX005 (ip), vehicle: Klucel (hydroxypropylcellulose) (HPC)): 357 % of control

NC(CSC(c1ccccc1)(c1ccccc1)c1ccccc1)C(=O)O (stereo unspecified)
T/C [10]: 107 % of control
T/C (dose: 64.0 mg/kg/injection, schedule: Q01DX005 (ip), vehicle: Klucel (hydroxypropylcellulose) (HPC)): 107 % of control
T/C (dose: 512.0 mg/kg/injection, schedule: Q01DX001 (ip), vehicle: Klucel (hydroxypropylcellulose) (HPC)): 108 % of control
T/C (dose: 516.0 mg/kg/injection, schedule: Q01DX001 (ip), vehicle: Klucel (hydroxypropylcellulose) (HPC)): 86 % of control

CC[C@H]1CN2CCc3cc(OC)c(OC)cc3[C@@H]2C[C@@H]1C[C@H]1NCCc2cc(OC)c(OC)cc21
T/C [9]: 100 % of control and 104 % of control
T/C [7]: 99 % of control and 105 % of control
T/C [8]: 105 % of control and 117 % of control

CN(C)N=Nc1ccc(C(N)=O)cc1
T/C [3]: 156 % of control
T/C [4]: 162 % of control
